Test results from US20220226496A1, “LIGAND-DRUG CONJUGATE INCLUDING LINKER HAVING TRIS STRUCTURE” (LEGOCHEM BIOSCIENCES, INC., priority 2019, published 2022).
Non-standard residues stand in square brackets, D forms with d. Residues, ends and D or L forms follow the SMILES beside them. *: point of attachment. Dolaproine = CO[C@@H]([C@@H]1CCCN1)[C@@H](C)C(=O)O; Dil = CC[C@H](C)[C@H](NC)[C@@H](CC(=O)O)OC; X1 = C[C@@H](N*)[C@@H](O)c1ccccc1; NMeV = CN[C@H](C(=O)O)C(C)C

How the values were obtained:
Experiment in all cases: In vitro cytotoxicity evaluation (cell proliferation inhibition, SRB dye)
Format in all cases: cell-based, human
JIMT-1 (HER2 positive) = conditions: JIMT-1 cells, SRB viable cell count; no 144 h footnote (168-hour treatment group)
Experimental: (§1) The cell proliferation inhibitory activity of the drug and ADCs listed in Table 2 below on cancer cell lines was measured. As the cancer cell lines, commercially available human breast cancer cell lines MCF-7 (HER2 negative to normal), SK-BR3 (HER2 positive), and JIMT-1 (HER2 positive) were used. MMAE was used as the drug, and the ADCs in Table 1 were used as the ADC. Each cancer cell line was seeded in a 96-well plate at 2,500 to 5,000 cells per well for 144-hour treatment group and 1,500 to 3,000 cells per well for 168-hour treatment group, cultured for 24 hours, and then treated with the ADCs and drug at concentrations of 0.00015 to 10.0 nM (4-fold serial dilution) or 0.0015 to 10 nM (3-fold serial dilution). After 144/168 hours, the number of viable cells was quantified using SRB (sulforhodamine B) dye.

[1] = tested on: MCF-7 (HER2 negative to normal); conditions: MCF7 cells, SRB viable cell count; no 144 h footnote (168-hour treatment group)
Experimental: as §1

SK-BR3 (HER2 positive) = conditions: SK-BR3 cells, SRB viable cell count; no 144 h footnote (168-hour treatment group)
Experimental: as §1

## CC[C@H](C)[C@@H]([C@@H](CC(=O)N1CCC[C@H]1[C@H](OC)[C@@H](C)C(=O)N[C@H](C)[C@@H](O)c1ccccc1)OC)N(C)C(=O)[C@@H](NC(=O)[C@@H](NC)C(C)C)C(C)C [MMAE, monomethyl auristatin E] (H-[NMeV]V[Dil][Dolaproine]-X1)
JIMT-1 (HER2 positive)
  CC50: 0.09 nM
[1]
  CC50: 0.31 nM
SK-BR3 (HER2 positive)
  CC50: 0.12 nM
